Results as given in ChEMBL document CHEMBL1147429, “Synthesis and evaluation of novel bacterial rRNA-binding benzimidazoles by mass spectrometry” (Bioorg Med Chem Lett, 2004).

Tested on: Ribosomal RNA A-site
Assay: Binding affinity for the 16S ribosomal RNA A-site of Escherichia coli
Assay type: nucleic-acid assay

Structure (SMILES): Clc1cc2nc(C3CCNCC3)n(Cc3cccnc3)c2cc1Cl
- Kd: 67 µM

Structure (SMILES): Clc1cc2nc(C3CCNCC3)n(Cc3ccncc3)c2cc1Cl
- Kd: 60 µM

Structure (SMILES): Clc1cc2nc(C3CCNCC3)[nH]c2cc1Cl
- Kd: 174 µM

Structure (SMILES): Clc1ccc2[nH]c(C3CCNCC3)nc2c1
- Kd: 508 µM

Structure (SMILES): O=[N+]([O-])c1ccc2[nH]c(-c3cccnc3)nc2c1
- Kd: > 1000 µM

Structure (SMILES): COc1ccc2[nH]c(C3CCNCC3)nc2c1
- Kd: 588 µM

Structure (SMILES): COC(=O)Cn1c(C2CCNCC2)nc2cc(Cl)c(Cl)cc21
- Kd: 301 µM

Structure (SMILES): O=[N+]([O-])c1ccc2[nH]c(-c3ccncc3)nc2c1
- Kd: > 1000 µM

Structure (SMILES): O=[N+]([O-])c1ccc(Cn2c(C3CCNCC3)nc3cc(Cl)c(Cl)cc32)cc1
- Kd: 241 µM

Structure (SMILES): Fc1c(F)c(F)c(Cn2c(C3CCNCC3)nc3cc(Cl)c(Cl)cc32)c(F)c1F
- Kd: 237 µM

Structure (SMILES): Clc1ccc2scc(Cn3c(C4CCNCC4)nc4cc(Cl)c(Cl)cc43)c2c1
- Kd: > 1000 µM

Structure (SMILES): O=[N+]([O-])c1cc(C(F)(F)F)ccc1-n1c(C2CCNCC2)nc2cc(Cl)c(Cl)cc21
- Kd: 122 µM

Structure (SMILES): FC(F)(F)c1ccc2[nH]c(C3CCNCC3)nc2c1
- Kd: 281 µM

Structure (SMILES): CCCCn1c(C2CCNCC2)nc2cc(Cl)c(Cl)cc21
- Kd: 278 µM

Structure (SMILES): Clc1cc2nc(C3CCNCC3)n(Cc3cccc(I)c3)c2cc1Cl
- Kd: 405 µM

Structure (SMILES): FC(F)(F)c1ccc(Cn2c(C3CCNCC3)nc3cc(Cl)c(Cl)cc32)c(C(F)(F)F)c1
- Kd: 159 µM

Structure (SMILES): COC(=O)c1ccc(Cn2c(C3CCNCC3)nc3cc(Cl)c(Cl)cc32)cc1
- Kd: 224 µM

Structure (SMILES): O=C(O)Cn1c(C2CCNCC2)nc2cc(Cl)c(Cl)cc21
- Kd: > 1000 µM

Structure (SMILES): c1cc2nc(C3CCNCC3)nc-2c[nH]1
- Kd: 110 µM

Structure (SMILES): Clc1cc2nc(C3CCNCC3)n(Cc3ccc(I)cc3)c2cc1Cl
- Kd: 198 µM

Structure (SMILES): Clc1cc2nc(C3CCNCC3)n(Cc3ccc(Br)cc3)c2cc1Cl
- Kd: 434 µM

Structure (SMILES): Cc1ccc2[nH]c(C3CCNCC3)nc2c1
- Kd: 439 µM

Structure (SMILES): c1c[nH]c2nc(C3CCNCC3)nc-2c1
- Kd: 535 µM

Structure (SMILES): O=[N+]([O-])c1ccc2[nH]c(C3CCNCC3)nc2c1
- Kd: 308 µM

Structure (SMILES): FC(F)(F)c1ccc(Cn2c(C3CCNCC3)nc3cc(Cl)c(Cl)cc32)cc1
- Kd: 214 µM

Structure (SMILES): N[C@H]1CC[C@@H](c2nc3cc([N+](=O)[O-])ccc3[nH]2)C1
- Kd: 221 µM

Structure (SMILES): c1ccc2sc(C3CCNCC3)nc2c1
- Kd: > 1000 µM

Structure (SMILES): CC(=O)N1CCC(c2nc3cc([N+](=O)[O-])ccc3[nH]2)CC1
- Kd: > 1000 µM

Structure (SMILES): Cc1cc2[nH]c(C3CCNCC3)nc2cc1Cl
- Kd: 380 µM

Structure (SMILES): NC1CCCC(c2nc3cc([N+](=O)[O-])ccc3[nH]2)C1 (stereo not drawn)
- Kd: 105 µM

Structure (SMILES): CN1CCC(c2nc3cc([N+](=O)[O-])ccc3[nH]2)CC1
- Kd: > 1000 µM

Structure (SMILES): Brc1ccc2[nH]c(C3CCNCC3)nc2c1
- Kd: 361 µM

Structure (SMILES): c1ccc2[nH]c(C3CCNCC3)nc2c1
- Kd: 108 µM

Structure (SMILES): O=[N+]([O-])c1ccc(-n2c(C3CCNCC3)nc3cc(Cl)c(Cl)cc32)c([N+](=O)[O-])c1
- Kd: 243 µM

Structure (SMILES): Nc1ccc2[nH]c(C3CCNCC3)nc2c1
- Kd: 500 µM

Structure (SMILES): c1nc2nc(C3CCNCC3)nc-2c[nH]1
- Kd: 914 µM

Structure (SMILES): Nc1cccc(-c2nc3cc([N+](=O)[O-])ccc3[nH]2)c1
- Kd: > 1000 µM

Structure (SMILES): Nc1ccc(-c2nc3cc([N+](=O)[O-])ccc3[nH]2)cc1
- Kd: > 1000 µM

Structure (SMILES): N[C@H]1C(O)O[C@H](CO)C(O)[C@@H]1O (single isomer, unassigned) [GLUCOSAMINE]
- Kd: ~1000 µM

Structure (SMILES): N[C@H]1CC[C@@H](c2nc3cc([N+](=O)[O-])ccc3[nH]2)CC1
- Kd: 123 µM

Structure (SMILES): Cc1ccc(OC(=O)n2c(C3CCNCC3)nc3cc(Cl)c(Cl)cc32)cc1
- Kd: > 1000 µM

Structure (SMILES): O=[N+]([O-])c1ccc2[nH]c(C3CCCCC3)nc2c1
- Kd: > 1000 µM

Structure (SMILES): Clc1cc2nc(C3CCNCC3)n(Cc3ccccc3Br)c2cc1Cl
- Kd: 593 µM

Structure (SMILES): Fc1c(F)c(C(F)(F)F)c(F)c(F)c1Cn1c(C2CCNCC2)nc2cc(Cl)c(Cl)cc21
- Kd: 117 µM

Structure (SMILES): CC(C)(C)c1ccc(Cn2c(C3CCNCC3)nc3cc(Cl)c(Cl)cc32)cc1
- Kd: 575 µM

Structure (SMILES): Cc1ccc(S(=O)(=O)n2c(C3CCNCC3)nc3cc(Cl)c(Cl)cc32)cc1
- Kd: > 1000 µM

Structure (SMILES): Cn1c(C2CCNCC2)nc2cc(Cl)c(Cl)cc21
- Kd: 239 µM

Structure (SMILES): Clc1cc2nc(C3CCNCC3)n(-c3ncccn3)c2cc1Cl
- Kd: 672 µM
